Key:
Type in all cases: in vivo
[1] = test system: Alopecurus myosuroides (ALOMY); experiment: Post-emergence herbicidal activity, glasshouse pot test; details: Alopecurus myosuroides, 312 h, rate 250 g/ha, evaluated after 13 days, glasshouse, read-out: Post-emergence activity ALOMY (100=total damage to plant; 0=no damage to plant)
Procedure, shortened: (§1)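 After sowing in standard soil, pots were cultivated for one day (pre-emergence) or eight days (post-emergence), then sprayed. Plants were watered twice daily in the glasshouse, and damage was rated 13 days after treatment, 0 being none and 100 total.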

[2] = test system: Lolium perenne (LOLPE); experiment: as above; details: Lolium perenne, 312 h, rate 250 g/ha, evaluated after 13 days, glasshouse, read-out: Post-emergence activity LOLPE (100=total damage to plant; 0=no damage to plant)
Procedure, shortened: as §1

[3] = test system: Echinochloa crus-galli (ECHCG); experiment: as above; details: Echinochloa crus-galli, 312 h, rate 250 g/ha, evaluated after 13 days, glasshouse, read-out: Post-emergence activity ECHCG (100=total damage to plant; 0=no damage to plant)
Procedure, shortened: as §1

[4] = test system: Avena fatua (AVEFA); experiment: as above; details: Avena fatua, 312 h, rate 250 g/ha, evaluated after 13 days, glasshouse, read-out: Post-emergence activity AVEFA (100=total damage to plant; 0=no damage to plant)
Procedure, shortened: as §1

[5] = test system: Alopecurus myosuroides (ALOMY); experiment: Pre-emergence herbicidal activity, glasshouse pot test; details: Alopecurus myosuroides, 312 h; Rate 250 g/ha; pre-emergence spray; evaluated after 13 days; read-out: Pre-emergence activity ALOMY (100=total damage to plant; 0=no damage to plant)
Procedure, shortened: as §1

[6] = test system: Lolium perenne (LOLPE); experiment: as above; details: Lolium perenne, 312 h; Rate 250 g/ha; pre-emergence spray; evaluated after 13 days; read-out: Pre-emergence activity LOLPE (100=total damage to plant; 0=no damage to plant)
Procedure, shortened: as §1

[7] = test system: Echinochloa crus-galli (ECHCG); experiment: as above; details: Echinochloa crus-galli, 312 h; Rate 250 g/ha; pre-emergence spray; evaluated after 13 days; read-out: Pre-emergence activity ECHCG (100=total damage to plant; 0=no damage to plant)
Procedure, shortened: as §1

[8] = test system: Avena fatua (AVEFA); experiment: as above; details: Avena fatua, 312 h; Rate 250 g/ha; pre-emergence spray; evaluated after 13 days; read-out: Pre-emergence activity AVEFA (100=total damage to plant; 0=no damage to plant)
Procedure, shortened: as §1

Row | Structure (SMILES) | pest or weed control at 250 g/ha [1] | pest or weed control at 250 g/ha [2] | pest or weed control at 250 g/ha [3] | pest or weed control at 250 g/ha [4] | pest or weed control at 250 g/ha [5] | pest or weed control at 250 g/ha [6] | pest or weed control at 250 g/ha [7] | pest or weed control at 250 g/ha [8]
1 | CCc1ccc(Oc2ccc(C#N)cc2C(F)(F)F)cc1C1=C(O)CC(C)(C)CC1=O [Example A-290] | 0% | 10% | 60% | 0% | 0% | 0% | 20% | 0%
2 | CCc1ccc(Oc2cnc3ccccc3n2)cc1C1=C(O)CC(C)(C)CC1=O [Example A-291] | 100% | 100% | 100% | 100% | 70% | 100% | 100% | 90%
3 | CCc1ccc(Oc2ccc3ccccc3n2)cc1C1=C(O)CC(C)(C)CC1=O [Example A-292] | 100% | 90% | 100% | 90% | 90% | 100% | 100% | 50%
4 | CCc1ccc(Oc2nc3cc(Cl)ccc3s2)cc1C1=C(O)CC(C)(C)CC1=O [Example A-293] | 100% | 100% | 100% | 100% | 80% | 100% | 100% | 30%
5 | CCc1ccc(Oc2ccc([N+](=O)[O-])cc2C(F)(F)F)cc1C1=C(O)CC(C)(C)CC1=O [Example A-294] | 40% | 20% | 80% | 40% | 60% | 70% | 90% | 0%
6 | CCc1ccc(Oc2ccc(C(F)(F)F)c(C#N)c2)cc1C1=C(O)CC(C)(C)CC1=O [Example A-295] | 80% | 40% | 100% | 60% | 50% | 50% | 70% | 20%
7 | CCc1ccc(Oc2ncc(Br)cn2)cc1C1=C(O)CC(C)(C)CC1=O [Example A-297] | 100% | 100% | 100% | 100% | 70% | 100% | 100% | 50%
8 | CCc1ccc(Oc2cnc3cc(F)ccc3n2)cc1C1=C(O)CC(C)(C)CC1=O [Example A-298] | 100% | 100% | 100% | 100% | 100% | 100% | 100% | 100%
9 | CCc1ccc(Oc2nc3ccc([N+](=O)[O-])cc3s2)cc1C1=C(O)CC(C)(C)CC1=O [Example A-299] | 90% | 80% | 100% | 90% | 50% | 100% | 100% | 20%
10 | CCc1ccc(Oc2nc3ccc(OC)cc3s2)cc1C1=C(O)CC(C)(C)CC1=O [Example A-300] | 80% | 60% | 100% | 70% | 80% | 100% | 100% | 0%
11 | CCc1ccc(Oc2ccc(Cl)cn2)cc1C1=C(O)CC(C)(C)CC1=O [Example A-301] | 100% | 90% | 100% | 60% | 70% | 100% | 100% | 60%
12 | CC1(C)OC(C)(C)C(O)=C(c2cc(Oc3ccc(Cl)cc3)ccc2OC(F)(F)F)C1=O [Example A-302] | 60% | 70% | 100% | 50% | 10% | 20% | 60% | 40%
13 | CCc1ccc(Oc2nc3ccccc3s2)cc1C1=C(O)CC2(CCOCC2)CC1=O [Example A-303] | 100% | 100% | 100% | 100% | 80% | 90% | 100% | 80%
14 | CCc1ccc(Oc2nc3ccc(Cl)cc3s2)cc1C1=C(O)CC2(CCOCC2)CC1=O [Example A-304] | 100% | 100% | 100% | 100% | 80% | 70% | 100% | 80%
15 | CCc1ccc(Oc2cnc3ccc(Br)cc3n2)cc1C1=C(O)CC2(CCOCC2)CC1=O [Example A-305] | 100% | 100% | 100% | 100% | 80% | 90% | 100% | 60%
16 | CCc1ccc(Oc2ccc(C#N)cc2C(F)(F)F)cc1C1=C(O)CC2(CCOCC2)CC1=O [Example A-306] | 70% | 60% | 100% | 80% | 60% | 70% | 100% | 0%
17 | CCc1ccc(Oc2cnc3ccccc3n2)cc1C1=C(O)CC2(CCOCC2)CC1=O [Example A-307] | 100% | 100% | 100% | 100% | 100% | 90% | 100% | 70%
18 | CCc1ccc(Oc2nc3cc(Cl)ccc3s2)cc1C1=C(O)CC2(CCOCC2)CC1=O [Example A-308] | 90% | 100% | 100% | 100% | 90% | 70% | 100% | 80%
19 | CCc1ccc(Oc2ccc([N+](=O)[O-])cc2C(F)(F)F)cc1C1=C(O)CC2(CCOCC2)CC1=O [Example A-309] | 50% | 50% | 100% | 70% | 40% | 20% | 70% | 0%
20 | CCc1ccc(Oc2ncc(Br)cn2)cc1C1=C(O)CC2(CCOCC2)CC1=O [Example A-310] | 100% | 90% | 100% | 80% | 100% | 70% | 100% | 50%
21 | CCc1ccc(Oc2cnc3cc(F)ccc3n2)cc1C1=C(O)CC2(CCOCC2)CC1=O [Example A-311] | 100% | 100% | 100% | 100% | 90% | 100% | 100% | 100%

From patent publication US8865623B2, “Herbicidally active cyclic diones and derivatives thereof, processes for their preparation, compositions, and method of controlling weeds” (Syngenta Limited, priority 2009, dated 2014)
